Assay results taken from patent US20150190440A1, “BLOOD PRESSURE REDUCING COMPOSITION FABRICATED BY USING MONASCUS PURPUREUS NTU 568 AND PRIMER FOR THE MONASCUS PURPUREUS NTU 568” (Sunway Biotech Co., LTD, priority 2014, published 2015).

Tests used:
Assay type in all cases: in vivo, rat
[1] = system: Spontaneous hypertensive rats (SHRs); assay: Blood pressure after one single oral administration in SHRs; conditions: M: SHR
Description: (§2) Spontaneous hypertensive rats (SHRs) and Wistar-Kyoto strains of normotensive rats (WKYs) are chosen to be experiment animals, wherein the SHRs would spontaneously suffer from the hypertension when they grow to 5˜6 weeks old. Herein, 8-week old SHRs are used for carrying out the experiments, and these 8-week old SHRs and WKYs are pre-fed with chew diet and water for 5 weeks before starting the experiments. […] The rats in the 9 groups are fed with the main feeding stuffs (i.e., chew diet and water) during first week to 13-th week. Moreover, the rats in the 9 groups are fed with the main feeding stuffs as well as the extract feeding stuffs at 14-th week in order to accomplish one single oral administration experiments; therefore, the rats in the 9 groups are continuously fed with the main feeding stuffs as well as the extract feeding stuffs starting from 14-th week and continuing for 8 weeks, so as to carry out one chronic administration experiment.
According to the body surface area (BSA) equation provided by Food and Drug Administration (FDA), the BSA of a standard person with the body height of 170 cm and the body weight of 65 kg can be calculated through the mathematical calculation formula of BSA (m^2)=0.003207{H^0.3×W^[0.07285−(0.0188×LOG (w))]}, wherein the BSA value obtained from aforesaid calculation formula for the standard person is 1.762 m^2. On the other hand, the BSA value for the SHRs can also be calculated through the mathematical calculation formula of BSA (m^2) (8.99 W^0.6899)/100, and the BSA value is 0.049 m^2. Moreover, because the experiments use “2.2 g” as a standard feeding dosage, the “1-fold” in Table 6 can be calculated to 176 mgkg^−1day^−1 according to BSA value of the SHRs. Herein, it needs to further explain that, M group is taken as a positive control group because amlodipine is a well-known blood pressure lowering substance. In the experiments, the lowest effective dosage (i.e., 1-fold dosage) for amlodipine is defined to 0.4 mgkg^−1day^−1.

[2] = system: Spontaneous hypertensive rats (SHRs); assay: Blood pressure in 8-week chronic administration experiment in SHRs; conditions: M: SHR
Description: as §2
Moreover, because the experiments use “2.2 g” as a standard feeding dosage, the “1-fold” in Table 6 can be calculated to 176 mgkg^−1day^−1 according to BSA value of the SHRs. Herein, it needs to further explain that, M group is taken as a positive control group because amlodipine is a well-known blood pressure lowering substance. In the experiments, the lowest effective dosage (i.e., 1-fold dosage) for amlodipine is defined to 0.4 mgkg^−1day^−1.

[3] = system: Spontaneous hypertensive rats (SHRs); assay: Heart rate of SHRs; conditions: M: SHR, amlodipine 0.4 mgkg-1day-1
Description: (§1) Spontaneous hypertensive rats (SHRs) and Wistar-Kyoto strains of normotensive rats (WKYs) are chosen to be experiment animals, wherein the SHRs would spontaneously suffer from the hypertension when they grow to 5˜6 weeks old. Herein, 8-week old SHRs are used for carrying out the experiments, and these 8-week old SHRs and WKYs are pre-fed with chew diet and water for 5 weeks before starting the experiments. Herein, it needs to further explain that, the experiment groups listed in Table 6 are divided to 9 groups. The rats in the 9 groups are fed with the main feeding stuffs (i.e., chew diet and water) during first week to 13-th week. Moreover, the rats in the 9 groups are fed with the main feeding stuffs as well as the extract feeding stuffs at 14-th week in order to accomplish one single oral administration experiments; therefore, the rats in the 9 groups are continuously fed with the main feeding stuffs as well as the extract feeding stuffs starting from 14-th week and continuing for 8 weeks, so as to carry out one chronic administration experiment. The designed experiment groups consist of:
Continuously, please refer to following Table 10, which record the heart rate data of SHRs and WKYs in the experiment groups listed in Table 6. From Table 10, it can find that the heart rate of SHRs in 1R, 5R, 1RM, and 5RM groups are normal comparing to the heart rate of SHRs in C group. Moreover, the heart rate of SHRs in W1R and W5R groups are normal comparing to the heart rate of WKYs in WC group.

[4] = system: Spontaneous hypertensive rats (SHRs); assay: Liver function indexes of SHRs; conditions: M: SHR, amlodipine 0.4 mgkg-1day-1
Description: as §1
With reference to following Table 11, which record the liver function indexes data of SHRs and WKYs in the experiment groups listed in Table 6. […] Wherein the liver function indexes data include: aspartate aminotransferase (AST), alanine aminotransferase (ALT), alkaline phosphatase, albumin, globulin, γ-Glutamyltransferase (γ-GT), total protein, and A/G ratio.

[5] = system: Spontaneous hypertensive rats (SHRs); assay: Kidney function, electrolytes and creatine phosphokinase indexes of SHRs; conditions: M: SHR, amlodipine 0.4 mgkg-1day-1
Description: as §1
Continuously, please refer to following Table 12, which record the data of kidney function indexes, electrolytes indexes and creatine phosphokinase indexes of SHRs and WKYs in the experiment groups listed in Table 6. From Table 12, it can find that the kidney function indexes, the electrolytes indexes and the creatine phosphokinase indexes of SHRs in 1R, 5R, 1RM, and 5RM groups are normal comparing to the kidney function indexes, the electrolytes indexes and the creatine phosphokinase indexes of SHRs in C group. Moreover, the kidney function indexes, the electrolytes indexes and the creatine phosphokinase indexes of SHRs in W1R and W5R groups are normal comparing to the kidney function indexes, the electrolytes indexes and the creatine phosphokinase indexes of WKYs in WC group. Wherein the kidney function indexes include blood urea nitrogen (BUN), creatinine and uric acid, and the electrolytes indexes include sodium and potassium. […] It is well know that, when the kidney is at a kidney failure situation, the concentration of creatinine and uric acid in blood serum would increase. […] It is well know that, when the muscle is subject to damage, the concentration of CPK in blood serum would increase.

[6] = system: Spontaneous hypertensive rats (SHRs); assay: Blood lipids of SHRs; conditions: M: SHR, amlodipine 0.4 mgkg-1day-1
Description: as §1, with “experiment.” for “experiment. The designed experiment groups consist of:”

[7] = amlodipine 0.4 mgkg-1day-1, 0 hr
[8] = amlodipine 0.4 mgkg-1day-1, 4 hr
[9] = amlodipine 0.4 mgkg-1day-1, 8 hr
[10] = amlodipine 0.4 mgkg-1day-1, 24 hr
[11] = amlodipine 0.4 mgkg-1day-1, 0 week
[12] = amlodipine 0.4 mgkg-1day-1, 2 week
[13] = amlodipine 0.4 mgkg-1day-1, 4 week
[14] = amlodipine 0.4 mgkg-1day-1, 6 week
[15] = amlodipine 0.4 mgkg-1day-1, 8 week

**Q.** `CCOC(=O)C1=C(COCCN)NC(C)=C(C(=O)OC)C1c1ccccc1Cl` (centres unmarked) [amlodipine] was tested. Which DBP [1, 7] did it give?
**A.** 143 ± 2.9 mmHg

**Q.** And the SBP [1, 7]?
**A.** 180 ± 3.6 mmHg

**Q.** What about the DBP [1, 8] of the same molecule?
**A.** 143 ± 3.8 mmHg

**Q.** What about the SBP [1, 8] of the same molecule?
**A.** 178 ± 5.4 mmHg

**Q.** What about the DBP [1, 9] of the same molecule?
**A.** 134 ± 4.9 mmHg

**Q.** What about the SBP [1, 9] of the same molecule?
**A.** 171 ± 3.1 mmHg

**Q.** And the DBP [1, 10]?
**A.** 137 ± 4.2 mmHg

**Q.** What about the SBP [1, 10] of the same molecule?
**A.** 175 ± 7.6 mmHg

**Q.** And the DBP [2, 11]?
**A.** 143 ± 2.9 mmHg

**Q.** What about the SBP [2, 11] of the same molecule?
**A.** 180 ± 3.6 mmHg

**Q.** What about the DBP [2, 12] of the same molecule?
**A.** 145 ± 3.6 mmHg

**Q.** What about the SBP [2, 12] of the same molecule?
**A.** 178 ± 5.4 mmHg

**Q.** What about the DBP [2, 13] of the same molecule?
**A.** 140 ± 3.8 mmHg

**Q.** And the SBP [2, 13]?
**A.** 171 ± 3.1 mmHg

**Q.** And the DBP [2, 14]?
**A.** 139 ± 1.9 mmHg

**Q.** What about the SBP [2, 14] of the same molecule?
**A.** 175 ± 7.6 mmHg

**Q.** What about the DBP [2, 15] of the same molecule?
**A.** 135 ± 2.7 mmHg

**Q.** What about the SBP [2, 15] of the same molecule?
**A.** 175 ± 7.6 mmHg

**Q.** What about the Heart rate ([3]; 0 hr) of the same molecule?
**A.** 402 ± 6.9 bpm

**Q.** And the Heart rate ([3]; 2 week)?
**A.** 402 ± 6.7 bpm

**Q.** And the Heart rate ([3]; 4 week)?
**A.** 404 ± 4.8 bpm

**Q.** And the Heart rate ([3]; 6 week)?
**A.** 403 ± 6.1 bpm

**Q.** And the Heart rate ([3]; 8 week)?
**A.** 402 ± 3.0 bpm

**Q.** What about the Heart rate ([3]; 4 hr) of the same molecule?
**A.** 401 ± 6.5 bpm

**Q.** And the Heart rate ([3]; 8 hr)?
**A.** 400 ± 4.8 bpm

**Q.** What about the Heart rate ([3]; 24 hr) of the same molecule?
**A.** 402 ± 4.9 bpm

**Q.** What about the A/G ratio [4] of the same molecule?
**A.** 2.1 ± 0.4

**Q.** What about the ALT [4] of the same molecule?
**A.** 85.7 ± 6.1 U/L

**Q.** And the AST [4]?
**A.** 125.8 ± 4.6 U/L

**Q.** What about the Albumin [4] of the same molecule?
**A.** 5.4 ± 0.2 g/dL

**Q.** And the Alkaline phosphatase [4]?
**A.** 143.3 ± 7.6 IU/L

**Q.** And the Globulin [4]?
**A.** 2.6 ± 0.1 g/dL

**Q.** And the Total protein [4]?
**A.** 8.2 ± 0.1 g/dL

**Q.** And the BUN [5]?
**A.** 23.7 ± 0.8 mg/dL

**Q.** What about the Creatinine [5] of the same molecule?
**A.** 0.48 ± 0.1 mg/dL

**Q.** And the Creatinine phosphokinase [5]?
**A.** 287.0 ± 12.2 U/L

**Q.** What about the Potassium [5] of the same molecule?
**A.** 8.8 ± 0.4 meq/L

**Q.** What about the Sodium [5] of the same molecule?
**A.** 152.4 ± 0.9 meq/L

**Q.** And the Uric acid [5]?
**A.** 5.8 ± 0.6 mg/dL

**Q.** And the Cholesterol [6]?
**A.** 79.8 ± 3.6 mg/dL

**Q.** What about the Cholesterol/HDL-C [6] of the same molecule?
**A.** 1.3 ± 0.1

**Q.** What about the HDL-C [6] of the same molecule?
**A.** 60.3 ± 1.9 mg/dL

**Q.** And the LDL-C [6]?
**A.** 10.0 ± 0.7 mg/dL

**Q.** And the Triacylglycerol [6]?
**A.** 69.3 ± 6.8 mg/dL
